These results are taken from publication PMC6445138 (2019).

In experiment [1] the test system is BsPreQ1-RS (unlabeled) (RNA, riboswitch) AGAGGUUCUAGCUACACCCUCUAUAAAAAACUAA
As to the kind of experiment: inherent ligand fluorescence titration. Conditions: 100 mM KCl, 1 mM MgCl2; 50 mM Tris pH 7.5, 5% DMSO, room temperature, compound 500 nM.

Experiment [2] concerns Ss PreQ1 TTA transcript (RNA, riboswitch) AUGUAGUAAGGAGGUUGUAUGGAAGACGAGAGGUUCCUAGCUGAUACCCUCUAUAAAAAACUAGACACAUGUACAACGUCUGUCUUUUUUAUAGAGAUAGGCGUUUUUUUAUGCGCUUAUCUAAACCCUGUACCAGUUAGUUCGACUAUUUUUAAGGAGU
As to the kind of experiment: single-round in vitro transcription termination. Conditions: KCl, MgCl2; 20 mM Tris-HCl pH 8.0, 37 °C, E. coli RNA polymerase.

Experiment [3] has as its system 5′-AF647-TtPreQ1-RS (RNA, riboswitch) CUGGGUCGCAGUAACCCCAGUUAACAAAACAAG
The experiment can be described thus: fluorescence intensity titration of labelled RNA. Conditions: 100 mM KCl, 1 mM MgCl2; 50 mM Tris pH 7.5, 10% DMSO, room temperature, RNA 50 nM; apparent.

For experiment [4], the system named is 5′-Cy5-BsPreQ1-RS (RNA, riboswitch) AGAGGUUCUAGCUACACCCUCUAUAAAAAACUAA
The experiment can be described thus: fluorescence intensity titration of labelled RNA. Conditions: 100 mM KCl, 1 mM MgCl2; 50 mM Tris pH 7.5, 10% DMSO, room temperature, RNA 50 nM; apparent.

The subject of experiment [5] is 5′-AF647-BsPreQ1-RS (RNA, riboswitch) GGAGAGGUUCUAGCUACACCCUCUAUAAAAAACUAA
As to the kind of experiment: in-line probing. Conditions: 10 mM KCl, 2 mM MgCl2.

For experiment [6], the system named is SsPreQ1-RS (unlabeled) (RNA, riboswitch) AGAGGUUCCUAGCUGAUACCCUCUAUAAAAAACUA
The experiment can be described thus: WaterLOGSY NMR. Conditions: 100 mM KCl, 1 mM MgCl2.

Experiment [7] deals with TtPreQ1-RS (unlabeled) (RNA, riboswitch) CUGGGUCGCAGUAACCCCAGUUAACAAAACAAG
As to the kind of experiment: inherent ligand fluorescence titration. Conditions: 100 mM KCl, 1 mM MgCl2; 50 mM Tris pH 7.5, 5% DMSO, room temperature, compound 500 nM.

Experiment [8] has as its system ab13_14_15 (RNA, riboswitch, abasic at 13, 14 and 15) CUGGGUCGCAGUNNNCCCAGUUAACAAAACAAG
As to the kind of experiment: X-ray crystallography.

Experiment [9] relates to ab13_14 (RNA, riboswitch, abasic at 13 and 14) CUGGGUCGCAGUNNCCCCAGUUAACAAAACAAG
The experiment can be described thus: X-ray crystallography.

For experiment [10], the system named is BsPreQ1-RS (unlabeled) (RNA, riboswitch) AGAGGUUCUAGCUACACCCUCUAUAAAAAACUAA
The experiment can be described thus: WaterLOGSY and CPMG NMR. Conditions: 100 mM KCl, 1 mM MgCl2; 50 mM Tris-d11 pH 7.5, 5% DMSO-d6; non-binding control, tested at 375 µM.

The test system of experiment [11] is TtPreQ1-RS (unlabeled) (RNA, riboswitch) CUGGGUCGCAGUAACCCCAGUUAACAAAACAAG
The experiment can be described thus: WaterLOGSY and CPMG NMR. Conditions: 100 mM KCl, 1 mM MgCl2; 50 mM Tris-d11 pH 7.5, 5% DMSO-d6; non-binding control, tested at 375 µM.

For orientation: EC50 means the concentration needed to bring the measured effect to its halfway point. A higher EC50 goes with a need for much substance. Take `NCCOc1ccc2oc3ccccc3c2c1`: the KD in experiment [1] came to 490 ± 368 nM; in experiment [3] it was 457 ± 202 nM; in experiment [4], 534 ± 123 nM; in [7], 99 ± 38 nM. The compound also came in with an EC50 in experiment [2] of 359000 ± 23000 nM. For the same compound, the binding entry in [5] (50 mM Tris pH 8.3, 5% DMSO, room temperature, compound 0.1-300 µM) is reported as “yes”; in [6] (50 mM Tris-d11 pH 7.5, 5% DMSO-d6, compound 375 µM), “yes”; in [8] (1.8 Å) it was “yes”; in experiment [9] (1.8 Å) it was “yes”.

Regarding `CN(C)CCOc1ccc2oc3ccccc3c2c1`, the KD in [3] worked out at 600 ± 200 nM; in experiment [4] it was 400 ± 100 nM. For the same compound, in experiment [9] (1.94 Å), the binding entry was “yes”.

With `CN[C@H](C(=O)O)C(C)C`, the binding entry in experiment [6] (50 mM Tris-d11 pH 7.5, 5% DMSO-d6, non-binding control, tested at 375 µM) was “no”; in [10], “no”; in [11], “no”.

Regarding `CN(C)CCOc1ccc2[nH]c3ccccc3c2c1`, the results for the KD in [3] and in experiment [4] were 100 ± 40 nM and 100 ± 80 nM, respectively. Besides, the binding result in experiment [8] (2.56 Å) is given as “yes”.

On to `NCc1c[nH]c2nc(N)[nH]c(=O)c12`, for which the EC50 in experiment [2] was 36 ± 5 nM. Moreover, the results for the KD in experiment [3] and in experiment [4] were 2.8 ± 0.4 nM and 4.1 ± 0.6 nM, respectively. Also, the binding result in experiment [5] (50 mM Tris pH 8.3, room temperature, compound 10 µM) is on record as “yes”; in [9] (1.69 Å), “yes”.
